Experiment [1] has as its system KRT10 (keratin 10) gene expression in normal human epidermal keratinocytes (NHEK). In words: Expression level of keratinocyte differentiation marker KRT10 in UVB-irradiated NHEK (TAQMAN real-time PCR). In kind it is cell-based. The following applies: UVB 25 mJ/cm^2, 10 nM compound, harvested on fourth day of culture, versus UV-irradiated cells (FIG. 1). The procedure: (§1) Normal human epidermal keratinocytes (NHEK) were cultured in a 6-well plate incubator. 24 hours later, the normal human epidermal keratinocytes (NHEK) were cultured by replacing it with phosphate-buffered saline (PBS) and irradiating it with UVB (25 mJ/cm^2) and adding 10 nM of a compound represented by Chemical Formula 1-1 (Cayman Chemical) to the NHEK culture medium. On the fourth day of the culture, cells were harvested to separate RNA and synthesize cDNA through RT-PCR (a reverse transcriptional polymerase chain reaction), and the synthesized cDNA was used to perform TAQMAN™ real-time PCR and measure gene expression levels of a keratinocyte differentiation marker, KRT10, and a desmosome constituent factor, DSC1, and the results are shown in FIGS. 1 and 2.

Experiment [2] relates to DSC1 (Desmocollin-1) gene expression in normal human epidermal keratinocytes (NHEK). Kind of experiment: Expression level of desmosome constituent factor DSC1 in UVB-irradiated NHEK (TAQMAN real-time PCR). In kind it is cell-based. The following applies: UVB 25 mJ/cm^2, 10 nM compound, harvested on fourth day of culture, versus UV-irradiated cells (FIG. 2). The procedure:
as §1
In general terms: Quantitative PCR measures a nucleic acid by following its amplification.

Consider `CC/C=C\C[C@H](O)/C=C/C=C\C=C\C=C\[C@@H](O)[C@@H](O)C/C=C\CCC(=O)O` [Chemical Formula 1-1], for which the “gene expression level of KRT10 (keratin 10)” value in experiment [1] was “increased again”. The “gene expression level of DSC1” value in experiment [2] is on record as “increased again”.

(Values after patent publication US12447117B2, “Composition and method of enhancing skin barrier using the same” (AMOREPACIFIC CORPORATION, priority 2018, dated 2025).)
